Results reported in paper PMC8881512 (Nature Communications, 2022).
Where “and” joins values, the source holds several entries; their conditions need not be identical. Equal entries are not always repeated.

What was measured:
AKT2 = target: T1, AKT2 (Homo sapiens, UniProt P31751); experiment: Kinome profiling; format: biochemical; details: VT02956 (5 nM), read-out: % enzymatic activity relative to DMSO controls
T1 construct: LATS1/LATS2 enzymes from Signalchem

LATS1 = target: T2, LATS1 (Homo sapiens, UniProt O95835); experiment: Kinome profiling; format: biochemical; details: VT02956 (5 nM)
T2 construct: purchased Signalchem
T2 sequence (O95835 1-1130): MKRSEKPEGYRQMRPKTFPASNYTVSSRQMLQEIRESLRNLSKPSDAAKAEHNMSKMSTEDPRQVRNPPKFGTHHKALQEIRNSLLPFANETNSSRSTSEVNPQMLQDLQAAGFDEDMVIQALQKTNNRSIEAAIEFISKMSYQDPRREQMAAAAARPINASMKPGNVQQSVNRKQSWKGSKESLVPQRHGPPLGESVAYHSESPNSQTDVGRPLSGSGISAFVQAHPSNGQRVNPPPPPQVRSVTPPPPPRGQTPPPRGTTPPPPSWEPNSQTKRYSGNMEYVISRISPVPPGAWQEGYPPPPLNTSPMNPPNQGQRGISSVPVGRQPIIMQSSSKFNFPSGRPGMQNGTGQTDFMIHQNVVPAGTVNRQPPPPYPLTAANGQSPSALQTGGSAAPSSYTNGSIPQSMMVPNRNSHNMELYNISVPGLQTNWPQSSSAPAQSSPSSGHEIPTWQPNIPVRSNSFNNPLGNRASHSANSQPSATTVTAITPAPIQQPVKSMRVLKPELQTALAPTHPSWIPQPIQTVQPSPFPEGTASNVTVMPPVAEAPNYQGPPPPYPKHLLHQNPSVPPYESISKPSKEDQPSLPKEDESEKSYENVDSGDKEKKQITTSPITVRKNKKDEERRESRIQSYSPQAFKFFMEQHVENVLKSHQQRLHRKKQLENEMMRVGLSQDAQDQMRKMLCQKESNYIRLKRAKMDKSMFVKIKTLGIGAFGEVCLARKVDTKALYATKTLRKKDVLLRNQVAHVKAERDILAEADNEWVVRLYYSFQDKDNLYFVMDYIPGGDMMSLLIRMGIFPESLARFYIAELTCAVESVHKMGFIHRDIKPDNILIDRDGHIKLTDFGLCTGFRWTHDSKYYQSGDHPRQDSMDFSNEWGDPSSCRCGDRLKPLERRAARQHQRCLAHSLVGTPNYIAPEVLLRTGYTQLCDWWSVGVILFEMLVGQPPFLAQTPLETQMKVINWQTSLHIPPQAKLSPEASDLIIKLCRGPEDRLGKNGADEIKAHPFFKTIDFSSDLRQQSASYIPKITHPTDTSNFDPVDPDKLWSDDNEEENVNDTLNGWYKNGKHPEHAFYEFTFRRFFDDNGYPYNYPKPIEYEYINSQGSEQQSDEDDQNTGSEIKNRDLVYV

JAK1 = target: T3, JAK1 (Homo sapiens, UniProt P23458); experiment: Kinome profiling; format: biochemical; details: VT02956 (5 nM)
T3 construct: LATS1/LATS2 enzymes from Signalchem

T47D cells = experiment: Cell proliferation by cell counting, T47D; format: cell-based; details: 0.5 µM or 2 µM, time course to 8 days; Supplementary Fig. 8c, d
Method: (§1) Cell proliferation rates were determined by automated cell counter. In brief, cells were plated at density of 0.1 million cells per well in six-well plate. Cell numbers were counted by the indicated time point as stated in the figure legends.

CK2a2 = target: T4, CK2a2 (Homo sapiens, UniProt P19784); experiment: Kinome profiling; format: biochemical; details: VT02956 (5 nM), read-out: % enzymatic activity relative to DMSO controls
T4 construct: LATS1/LATS2 enzymes from Signalchem

p70S6K/RPS6KB1 = target: T5, p70S6K/RPS6KB1 (Homo sapiens, UniProt P23443); experiment: Kinome profiling; format: biochemical; details: VT02956 (5 nM), read-out: % enzymatic activity relative to DMSO controls
T5 construct: LATS1/LATS2 enzymes from Signalchem

IKKb/IKBKB = target: T6, IKKb/IKBKB (Homo sapiens, UniProt O14920); experiment: Kinome profiling; format: biochemical; details: VT02956 (5 nM), read-out: % enzymatic activity relative to DMSO controls
T6 construct: LATS1/LATS2 enzymes from Signalchem

TYK2 = target: T7, TYK2 (Homo sapiens, UniProt P29597); experiment: Kinome profiling; format: biochemical; details: VT02956 (5 nM)
T7 construct: LATS1/LATS2 enzymes from Signalchem

EPHA3 = target: T8, EPHA3 (Homo sapiens, UniProt P29320); experiment: Kinome profiling; format: biochemical; details: VT02956 (5 nM), read-out: % enzymatic activity relative to DMSO controls
T8 construct: LATS1/LATS2 enzymes from Signalchem

CHK1 = target: T9, CHK1 (Homo sapiens, UniProt O14757); experiment: Kinome profiling; format: biochemical; details: VT02956 (5 nM)
T9 construct: LATS1/LATS2 enzymes from Signalchem

CAMK2d = target: T10, CAMK2d (Homo sapiens, UniProt Q13557); experiment: Kinome profiling; format: biochemical; details: VT02956 (5 nM), read-out: % enzymatic activity relative to DMSO controls
T10 construct: LATS1/LATS2 enzymes from Signalchem

MCF-7 cells = experiment: Cell proliferation by cell counting, MCF-7; format: cell-based, human; details: for Cell proliferation normalised to DMSO treated WT cells: 4 days, Fig.6c
Method: as §1

COT1/MAP3K8 = target: T11, COT1/MAP3K8 (Homo sapiens, UniProt P41279); experiment: Kinome profiling; format: biochemical; details: VT02956 (5 nM), read-out: % enzymatic activity relative to DMSO controls
T11 construct: LATS1/LATS2 enzymes from Signalchem

[1] = test system: Phospho-YAP (Ser127) in HEK293A cells; experiment: Cellular Phospho-YAP HTRF assay, HEK293A; format: cell-based; details: for YAP phosphorylation: 293A, Fig.5d
Method: Compound inhibition of […] YAP phosphorylation were performed based on commercial Phospho-YAP (Ser127) kit (Cisbio). In brief, HEK293A cells at 80%-100% confluence was rinsed with PBS, digested in 0.25% Trypsin-EDTA and centrifuged at 1000 × g for 3 min. The cell pellet was resuspended with appropriate volume of serum-free medium, counted using automated cell counter (Invitrogen), adjusted to a working density of 2.9 × 10^6/ml and dispensed into 384-well small volume white plate (Greiner) at 12 μl/well (3.5 × 10^4 cells) using Thermo Multidrop Combi microplate dispenser. At the time of detection, 36 nl DMSO contain 3-fold serial diluted compounds ranging from 10,000 to 4.6 nM were added into designed wells by Eco system and incubated at 37 °C for 120 min. Cell were lysed by adding 4 μl lysis buffer (4x), and incubated for 45 min at room temperature under shaking. HTRF reaction was performed by adding 4 μl of premixed phospho-YAP Cryptate antibody/Phospho-YAP d2 antibody solution prepared in the detection buffer and incubate at room temperature overnight. […] The compound inhibition was calculated by the formula, inhibition % = ([…]) × 100/ (HPE−ZPE). HPE represent 100% effect and ZPE is 0% effect. The data processing procedures were similar as in vitro LATS kinase inhibition assay.

NEK11 = target: T12, NEK11 (Homo sapiens, UniProt Q8NG66); experiment: Kinome profiling; format: biochemical; details: VT02956 (5 nM), read-out: % enzymatic activity relative to DMSO controls
T12 construct: LATS1/LATS2 enzymes from Signalchem
T12 sequence (Q8NG66 whole entry): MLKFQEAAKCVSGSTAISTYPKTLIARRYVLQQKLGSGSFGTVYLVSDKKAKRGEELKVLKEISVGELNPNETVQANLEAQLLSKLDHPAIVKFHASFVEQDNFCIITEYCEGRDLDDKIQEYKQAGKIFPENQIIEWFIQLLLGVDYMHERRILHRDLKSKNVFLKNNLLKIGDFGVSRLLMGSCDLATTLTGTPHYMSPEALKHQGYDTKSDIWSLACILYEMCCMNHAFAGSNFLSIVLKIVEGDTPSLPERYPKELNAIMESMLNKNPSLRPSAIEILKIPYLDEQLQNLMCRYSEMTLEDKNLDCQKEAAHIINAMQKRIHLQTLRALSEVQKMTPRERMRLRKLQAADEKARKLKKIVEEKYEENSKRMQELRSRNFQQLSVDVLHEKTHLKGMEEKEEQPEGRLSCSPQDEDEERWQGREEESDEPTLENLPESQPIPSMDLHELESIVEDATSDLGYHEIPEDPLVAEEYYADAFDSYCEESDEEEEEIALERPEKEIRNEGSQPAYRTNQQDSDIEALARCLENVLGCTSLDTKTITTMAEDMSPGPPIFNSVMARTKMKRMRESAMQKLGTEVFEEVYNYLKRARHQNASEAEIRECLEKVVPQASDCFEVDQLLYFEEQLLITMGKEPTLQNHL

T6 sequence (O14920 whole entry): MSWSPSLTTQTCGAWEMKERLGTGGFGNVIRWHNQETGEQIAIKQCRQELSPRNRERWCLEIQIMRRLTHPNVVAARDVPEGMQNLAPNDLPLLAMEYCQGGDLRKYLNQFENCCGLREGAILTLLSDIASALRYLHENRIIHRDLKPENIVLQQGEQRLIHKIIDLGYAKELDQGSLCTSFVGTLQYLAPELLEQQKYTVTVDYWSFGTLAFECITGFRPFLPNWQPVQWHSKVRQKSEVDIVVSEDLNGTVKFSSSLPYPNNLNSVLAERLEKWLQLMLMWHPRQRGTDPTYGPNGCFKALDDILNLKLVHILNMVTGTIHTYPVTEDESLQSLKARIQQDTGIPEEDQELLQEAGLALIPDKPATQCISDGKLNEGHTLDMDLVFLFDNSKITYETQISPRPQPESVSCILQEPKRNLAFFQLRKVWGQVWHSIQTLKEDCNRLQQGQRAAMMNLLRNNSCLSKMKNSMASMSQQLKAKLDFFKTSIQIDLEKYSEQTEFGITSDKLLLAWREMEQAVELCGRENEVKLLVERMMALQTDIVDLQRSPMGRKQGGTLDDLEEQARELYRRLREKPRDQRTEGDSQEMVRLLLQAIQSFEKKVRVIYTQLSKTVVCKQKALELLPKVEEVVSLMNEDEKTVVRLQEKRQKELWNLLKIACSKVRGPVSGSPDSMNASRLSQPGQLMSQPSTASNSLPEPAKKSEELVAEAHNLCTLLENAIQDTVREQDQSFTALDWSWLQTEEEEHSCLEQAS
T7 sequence (P29597 whole entry): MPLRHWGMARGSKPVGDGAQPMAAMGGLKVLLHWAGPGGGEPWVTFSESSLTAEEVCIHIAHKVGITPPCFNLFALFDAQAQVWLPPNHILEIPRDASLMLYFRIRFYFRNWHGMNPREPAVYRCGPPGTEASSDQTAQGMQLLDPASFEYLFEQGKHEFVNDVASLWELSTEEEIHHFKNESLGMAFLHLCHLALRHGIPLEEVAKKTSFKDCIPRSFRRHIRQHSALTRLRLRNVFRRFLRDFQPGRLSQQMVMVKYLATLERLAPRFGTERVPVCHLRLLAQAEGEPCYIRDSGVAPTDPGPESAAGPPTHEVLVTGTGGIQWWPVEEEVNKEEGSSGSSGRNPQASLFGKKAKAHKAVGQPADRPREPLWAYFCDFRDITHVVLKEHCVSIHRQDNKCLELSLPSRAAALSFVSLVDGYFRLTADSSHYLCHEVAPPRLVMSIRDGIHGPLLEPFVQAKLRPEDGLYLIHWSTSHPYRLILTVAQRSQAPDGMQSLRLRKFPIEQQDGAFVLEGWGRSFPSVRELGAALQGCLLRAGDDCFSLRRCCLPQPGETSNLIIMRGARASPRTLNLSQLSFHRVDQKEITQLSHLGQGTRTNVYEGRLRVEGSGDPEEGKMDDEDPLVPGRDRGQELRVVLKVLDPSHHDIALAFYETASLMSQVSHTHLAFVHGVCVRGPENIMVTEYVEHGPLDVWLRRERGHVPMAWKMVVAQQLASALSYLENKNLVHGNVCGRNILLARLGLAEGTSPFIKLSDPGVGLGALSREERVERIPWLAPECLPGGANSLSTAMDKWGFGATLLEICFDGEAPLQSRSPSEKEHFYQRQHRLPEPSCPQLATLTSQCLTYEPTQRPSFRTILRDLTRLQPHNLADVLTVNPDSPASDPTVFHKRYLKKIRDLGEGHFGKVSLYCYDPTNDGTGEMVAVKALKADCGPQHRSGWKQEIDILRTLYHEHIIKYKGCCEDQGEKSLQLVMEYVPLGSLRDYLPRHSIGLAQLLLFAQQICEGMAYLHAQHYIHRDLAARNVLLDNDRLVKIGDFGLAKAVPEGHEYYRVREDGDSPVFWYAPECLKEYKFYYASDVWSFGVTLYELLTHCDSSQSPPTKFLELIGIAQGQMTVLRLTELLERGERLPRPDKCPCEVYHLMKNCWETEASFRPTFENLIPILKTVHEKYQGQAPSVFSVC
T8 sequence (P29320 21-983): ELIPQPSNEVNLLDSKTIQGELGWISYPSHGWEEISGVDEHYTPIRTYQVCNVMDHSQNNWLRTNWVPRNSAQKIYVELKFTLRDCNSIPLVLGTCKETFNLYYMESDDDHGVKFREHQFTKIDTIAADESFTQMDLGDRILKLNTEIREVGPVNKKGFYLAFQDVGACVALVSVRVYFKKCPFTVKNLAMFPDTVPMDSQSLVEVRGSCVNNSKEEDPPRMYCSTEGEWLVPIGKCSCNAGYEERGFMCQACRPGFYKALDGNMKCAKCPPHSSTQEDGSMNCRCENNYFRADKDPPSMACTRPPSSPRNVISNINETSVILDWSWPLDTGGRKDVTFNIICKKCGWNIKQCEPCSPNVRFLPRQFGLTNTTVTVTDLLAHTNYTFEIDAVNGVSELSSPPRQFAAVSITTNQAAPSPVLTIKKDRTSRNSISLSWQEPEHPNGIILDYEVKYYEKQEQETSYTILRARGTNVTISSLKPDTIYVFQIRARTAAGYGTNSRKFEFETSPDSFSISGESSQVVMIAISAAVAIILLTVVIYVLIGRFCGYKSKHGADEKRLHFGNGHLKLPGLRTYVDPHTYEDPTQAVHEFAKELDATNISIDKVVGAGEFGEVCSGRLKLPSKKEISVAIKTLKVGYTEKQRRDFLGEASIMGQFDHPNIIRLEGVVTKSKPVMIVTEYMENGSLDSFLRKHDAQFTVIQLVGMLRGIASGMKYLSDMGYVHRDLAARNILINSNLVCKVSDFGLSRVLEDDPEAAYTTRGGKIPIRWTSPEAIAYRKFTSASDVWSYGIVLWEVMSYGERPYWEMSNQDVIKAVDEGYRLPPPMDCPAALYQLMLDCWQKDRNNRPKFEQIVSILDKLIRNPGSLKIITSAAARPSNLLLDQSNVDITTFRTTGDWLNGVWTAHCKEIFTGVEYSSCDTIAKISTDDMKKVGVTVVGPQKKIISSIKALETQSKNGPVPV
T4 sequence (P19784 whole entry): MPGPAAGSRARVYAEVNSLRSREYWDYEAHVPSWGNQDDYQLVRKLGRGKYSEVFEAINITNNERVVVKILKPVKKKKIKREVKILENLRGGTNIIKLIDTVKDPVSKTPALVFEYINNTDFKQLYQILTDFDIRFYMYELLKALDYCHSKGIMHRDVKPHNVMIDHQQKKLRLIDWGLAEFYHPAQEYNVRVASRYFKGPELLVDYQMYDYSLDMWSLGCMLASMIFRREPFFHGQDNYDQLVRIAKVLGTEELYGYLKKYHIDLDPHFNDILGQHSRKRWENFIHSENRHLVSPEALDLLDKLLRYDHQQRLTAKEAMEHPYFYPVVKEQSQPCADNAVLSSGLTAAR
T5 sequence (P23443 whole entry): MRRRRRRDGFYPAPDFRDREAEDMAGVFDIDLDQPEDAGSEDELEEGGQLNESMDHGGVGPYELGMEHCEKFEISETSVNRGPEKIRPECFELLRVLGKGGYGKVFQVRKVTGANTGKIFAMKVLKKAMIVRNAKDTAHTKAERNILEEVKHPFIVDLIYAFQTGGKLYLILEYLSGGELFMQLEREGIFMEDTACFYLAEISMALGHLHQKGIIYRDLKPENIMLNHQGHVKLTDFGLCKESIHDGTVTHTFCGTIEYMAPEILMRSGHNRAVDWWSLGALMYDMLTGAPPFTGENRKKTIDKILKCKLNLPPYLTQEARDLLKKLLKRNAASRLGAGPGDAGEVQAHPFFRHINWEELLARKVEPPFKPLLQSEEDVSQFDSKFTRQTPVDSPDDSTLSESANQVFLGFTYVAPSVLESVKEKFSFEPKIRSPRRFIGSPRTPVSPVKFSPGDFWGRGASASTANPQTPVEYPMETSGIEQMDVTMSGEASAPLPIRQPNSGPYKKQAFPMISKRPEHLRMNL
T10 sequence (Q13557 whole entry): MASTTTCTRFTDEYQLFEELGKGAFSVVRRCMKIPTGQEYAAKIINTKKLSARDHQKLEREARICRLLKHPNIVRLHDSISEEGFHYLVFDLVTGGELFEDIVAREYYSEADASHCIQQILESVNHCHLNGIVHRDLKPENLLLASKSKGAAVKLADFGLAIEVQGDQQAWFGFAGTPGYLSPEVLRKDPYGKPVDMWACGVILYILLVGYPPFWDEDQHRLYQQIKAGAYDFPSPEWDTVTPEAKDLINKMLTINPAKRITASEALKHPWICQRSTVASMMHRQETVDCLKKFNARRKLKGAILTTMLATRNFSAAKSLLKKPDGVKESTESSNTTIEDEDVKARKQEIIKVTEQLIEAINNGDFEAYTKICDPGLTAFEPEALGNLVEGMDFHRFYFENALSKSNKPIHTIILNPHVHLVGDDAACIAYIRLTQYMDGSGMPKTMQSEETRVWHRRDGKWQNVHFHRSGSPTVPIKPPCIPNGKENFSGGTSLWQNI

Q: With `NCC1CCN(c2nc(-c3ccncc3)nc3c(C#CCO)cccc23)CC1` [VT02956] as the compound, how does the remaining activity at 0.005 µM (AKT2) read?
A: 85%

Q: What about the “% enzymatic activity relative to DMSO controls” value (LATS1) of the same compound?
A: 22%

Q: What about the “% enzymatic activity relative to DMSO controls” value (JAK1) of the same compound?
A: 82%

Q: And the T47D proliferation (T47D cells)?
A: inhibited the proliferation of MCF-7 and T47D cells

Q: What about the remaining activity at 0.005 µM (CK2a2) of the same compound?
A: 78%

Q: What about the remaining activity at 0.005 µM (p70S6K/RPS6KB1) of the same compound?
A: 38%

Q: What about the remaining activity at 0.005 µM (IKKb/IKBKB) of the same compound?
A: 86%

Q: What about the “% enzymatic activity relative to DMSO controls” value (TYK2) of the same compound?
A: 78%

Q: What about the remaining activity at 0.005 µM (EPHA3) of the same compound?
A: 84%

Q: What about the “% enzymatic activity relative to DMSO controls” value (CHK1) of the same compound?
A: 80%

Q: What about the remaining activity at 0.005 µM (CAMK2d) of the same compound?
A: 77%

Q: What about the MCF-7 proliferation (MCF-7 cells; 0.5 µM or 2 µM, 4-day time course, Supplementary Fig. 8a, b) of the same compound?
A: inhibited the proliferation of MCF-7 and T47D cells

Q: And the “Cell proliferation normalised to DMSO treated WT cells” value (“Cell proliferation normalised” below) (MCF-7 cells; MCF-7 LATS1/2 dKO, VT02956 0.5 uM)?
A: 31.2704 and 24.43 and 25.4072

Q: What about the “Cell proliferation normalised” value (MCF-7 cells; MCF-7 LATS1/2 dKO, VT02956 2 uM) of the same compound?
A: 23.4528 and 26.3844 and 21.4984

Q: And the “Cell proliferation normalised” value (MCF-7 cells; MCF-7 WT, VT02956 0.5 uM)?
A: 76.2215 and 83.0619 and 85.9935

Q: What about the “Cell proliferation normalised” value (MCF-7 cells; MCF-7 WT, VT02956 2 uM) of the same compound?
A: 41.0423 and 42.0195

Q: And the “Cell proliferation normalised” value (MCF-7 cells; MCF-7 YAP/TAZ dKO, VT02956 0.5 uM)?
A: 94.7883 and 88.9251 and 92.8339

Q: And the “Cell proliferation normalised” value (MCF-7 cells; MCF-7 YAP/TAZ dKO, VT02956 2 uM)?
A: 84.0391 and 80.1303 and 85.0163

Q: What about the remaining activity at 0.005 µM (COT1/MAP3K8) of the same compound?
A: 86%

Q: What about the YAP phosphorylation ([1]; Conc. 0.00457247 (µM)) of the same compound?
A: 88.3714 and 102.283

Q: And the YAP phosphorylation ([1]; Conc. 0.0137174 (µM))?
A: 105.168 and 111.221

Q: And the YAP phosphorylation ([1]; Conc. 0.0411523 (µM))?
A: 96.441 and 81.638

Q: And the YAP phosphorylation ([1]; Conc. 0.123457 (µM))?
A: 73.179 and 42.0107

Q: And the YAP phosphorylation ([1]; Conc. 0.37037 (µM))?
A: 20.9423 and 23.4127

Q: And the YAP phosphorylation ([1]; Conc. 1.11111 (µM))?
A: 9.018 and 5.767

Q: What about the IC50 ([1]; HEK293-A, 2 h, HEK293A cells, 120 min, read-out: YAP phosphorylation IC50) of the same compound?
A: 0.16 µM

Q: And the remaining activity at 0.005 µM (NEK11)?
A: 82%
